From patent publication US10105357B2, “Indication of antibiotic drugs for preparation of cancer inhibition pharmaceutical composition” (LAUNX BIOMEDICAL CO., LTD., priority 2014, dated 2018)
Like-named read-outs stand apart in the source and are kept apart here.

Key:
[1] = tested on: HepG2 (Hepatocellular Carcinoma); assay: Cell viability analysis, hepatic cancer HepG2; type: cell-based, human; settings: Homo sapiens, HepG2, 72 h
[2] = tested on: MKN-45 (Gastric Adenocarcinoma); assay: Cell viability analysis, gastric cancer MKN-45; type: cell-based, human; settings: Homo sapiens, MKN-45, 72 h
[3] = tested on: AGS (Gastric Adenocarcinoma); assay: Cell viability analysis, gastric cancer AGS; type: cell-based, human; settings: Homo sapiens, 72 h
[4] = tested on: BCC (basal cell carcinoma); assay: Cell viability analysis, skin cancer BCC; type: cell-based, human; settings: Homo sapiens, 72 h, read-out: The results of antibiotic drug inhibiting cancer cell lines (cell viability analysis), BCC
[5] = tested on: HI650 (Lung Adenocarcinoma); assay: Cell viability analysis, lung cancer HI650; type: cell-based, human; settings: Homo sapiens, NCI-H1650, 72 h
[6] = tested on: C-33A (Cervical carcinoma); assay: Cell viability analysis, cervical cancer C-33A; type: cell-based, human; settings: Homo sapiens, 72 h, read-out: The results of antibiotic drug inhibiting cancer cell lines (cell viability analysis), C-33A
[7] = tested on: TOV-21G; assay: Cell viability analysis, ovarian cancer TOV-21G; type: cell-based, human; settings: Homo sapiens, TOV21G, 72 h, read-out: The results of antibiotic drug inhibiting cancer cell lines (cell viability analysis), TOV-21G
[8] = tested on: PC3 (p53−) (Prostate Adenocarcinoma); assay: Cell viability analysis, prostate cancer PC3; type: cell-based, human; settings: Homo sapiens, 72 h
[9] = tested on: T24; assay: Cell viability analysis, bladder cancer T24; type: cell-based, human; settings: Homo sapiens, T-24, 72 h, read-out: The results of antibiotic drug inhibiting cancer cell lines (cell viability analysis), T24
[10] = tested on: HL-60 (Acute Promyelocytic Leukemia); assay: Cell viability analysis, leukemia HL-60; type: cell-based, human; settings: Homo sapiens, HL-60, 72 h
[11] = tested on: HCT116 (p53+) (Colorectal Carcinoma)
[12] = tested on: AsPC-1; assay: Cell viability analysis, pancreatic cancer AsPC-1; type: cell-based, human; settings: Homo sapiens, ASPC1, 72 h, read-out: The results of antibiotic drug inhibiting cancer cell lines (cell viability analysis), AsPC-1
[13] = tested on: Hep3B (hepatocellular carcinoma); assay: Cell viability analysis, hepatic cancer Hep3B; type: cell-based, human; settings: Homo sapiens, 72 h, Hep3B, read-out: The results of antibiotic drug inhibiting cancer cell lines (cell viability analysis), Hep3B
[14] = tested on: BxPC-3; assay: Cell viability analysis, pancreatic cancer BxPC-3; type: cell-based, human; settings: Homo sapiens, read-out: The results of antibiotic drug inhibiting cancer cell lines (cell viability analysis), BxPC-3
[15] = tested on: U-2OS; assay: Cell viability analysis, osteosarcoma U-2OS; type: cell-based, human; settings: Homo sapiens, 72 h, U2OS, read-out: The results of antibiotic drug inhibiting cancer cell lines (cell viability analysis), U2OS
[16] = tested on: cancer cell lines; assay: Cell viability analysis (WST-1) on cancer cell lines; type: cell-based, human; settings: drug 10 μM, 72 hours, WST-1; Table 3
[17] = tested on: HeLa (Cervix Adenocarcinoma); assay: Cell viability analysis, cervical cancer HeLa; type: cell-based, human; settings: Homo sapiens, HeLa, 72 h, HeLa
[18] = tested on: A375 (Amelanotic Melanoma); assay: Cell viability analysis, skin cancer A375; type: cell-based, human; settings: Homo sapiens, A-375, 72 h
[19] = tested on: MDA-MB-231 (Mammary Gland, Adenocarcinoma); assay: Cell viability analysis, breast cancer MDA-MB-231; type: cell-based, human; settings: Homo sapiens, MDA-MB-231, 72 h, read-out: The results of antibiotic drug inhibiting cancer cell lines (cell viability analysis), MDA-MB231
[20] = tested on: SAS (Tongue squamous cell carcinoma); assay: Cell viability analysis, tongue cancer SAS; type: cell-based, human; settings: Homo sapiens, 72 h, read-out: The results of antibiotic drug inhibiting cancer cell lines (cell viability analysis), SAS
[21] = tested on: NIH: OVCAR-3; assay: Cell viability analysis, ovarian cancer NIH: OVCAR-3; type: cell-based, human; settings: Homo sapiens, read-out: The results of antibiotic drug inhibiting cancer cell lines (cell viability analysis), NIH-OVCAR-3
[22] = tested on: TSGH-8301 (Urinary Bladder Carcinoma); assay: Cell viability analysis, bladder cancer TSGH-8301; type: cell-based, human; settings: Homo sapiens, 72 h
[23] = tested on: LoVo (Colorectal Adenocarcinoma); assay: Cell viability analysis, colon cancer LoVo; type: cell-based, human; settings: Homo sapiens, LoVo, 72 h
[24] = tested on: A549 (Lung Adenocarcinoma); assay: Cell viability analysis, lung cancer A549; type: cell-based, human; settings: Homo sapiens, A549, 72 h
[25] = read-out: The results of antibiotic drug inhibiting cancer cell lines (cell viability analysis), LoVo, repeated experiment
[26] = read-out: cell viability (survival rate), LoVo, drug 10 μM, 72 hours, WST-1, OD450 nm

CCCCCCCCCCCCCCCC[N+](C)(C)CCN(Cc1ccc(OC)cc1)c1ncccn1 [Thonzonium Bromide]
viability at 10 µM ([1]; HepG2, repeated experiment, read-out: The results of antibiotic drug inhibiting cancer cell lines (cell viability analysis), HepG2): 47.7%
viability at 10 µM ([1]; drug 10 μM, 72 hours, WST-1, OD450 nm, read-out: cell viability (survival rate), HepG2): 45.1%
viability at 10 µM ([2]; MKN-45, repeated experiment, read-out: The results of antibiotic drug inhibiting cancer cell lines (cell viability analysis), MKN-45): 31.2%
viability at 10 µM ([2]; drug 10 μM, 72 hours, WST-1, OD450 nm, read-out: cell viability (survival rate), MKN-45): 47%
viability at 10 µM ([3]; AGS, repeated experiment, read-out: The results of antibiotic drug inhibiting cancer cell lines (cell viability analysis), AGS): 14.4%
viability at 10 µM ([3]; drug 10 μM, 72 hours, WST-1, OD450 nm, read-out: cell viability (survival rate), AGS): 22.5%
viability at 10 µM ([4]; BCC, repeated experiment): 23.4%
viability at 10 µM ([5]; H1650, repeated experiment, read-out: The results of antibiotic drug inhibiting cancer cell lines (cell viability analysis), H1650): 37.6%
viability at 10 µM ([5]; drug 10 μM, 72 hours, WST-1, OD450 nm, read-out: cell viability (survival rate), H1650): 36.7%
viability at 10 µM ([6]; C-33A, repeated experiment): 32.5%
viability at 10 µM ([7]; TOV-21G, repeated experiment): 17.4%
viability at 10 µM ([8]; PC-3, repeated experiment, read-out: The results of antibiotic drug inhibiting cancer cell lines (cell viability analysis), PC-3): 29.3%
viability at 10 µM ([8]; drug 10 μM, 72 hours, WST-1, OD450 nm, read-out: cell viability (survival rate), PC3): 46.2%
viability at 10 µM ([9]; T24, repeated experiment): 18.5%
viability at 10 µM ([10]; drug 10 μM, 72 hours, WST-1, OD450 nm, read-out: cell viability (survival rate), HL-60): 35.2%
viability [11]: 18.8%
viability at 10 µM ([12]; AsPC-1, repeated experiment): 27.6%
viability at 10 µM ([13]; repeated experiment): 51.3%
viability at 10 µM ([14]; 72 h, BxPC-3, repeated experiment): 24.4%
viability at 10 µM ([15]; repeated experiment): 31.7%
inhibition effect on different cancer cell lines [16]: significant inhibition effect
viability at 10 µM ([17]; repeated experiment, read-out: The results of antibiotic drug inhibiting cancer cell lines (cell viability analysis), HeLa): 20.3%
viability at 10 µM ([17]; drug 10 μM, 72 hours, WST-1, OD450 nm, read-out: cell viability (survival rate), HeLa): 28%
viability at 10 µM ([18]; A375, repeated experiment, read-out: The results of antibiotic drug inhibiting cancer cell lines (cell viability analysis), A375): 12.4%
viability at 10 µM ([18]; drug 10 μM, 72 hours, WST-1, OD450 nm, read-out: cell viability (survival rate), A375): 24.4%
viability at 10 µM ([19]; MDA-MB231, repeated experiment): 33.1%
viability at 10 µM ([20]; SAS, repeated experiment): 20.4%
viability at 10 µM ([21]; 72 h, NIH-OVCAR-3, repeated experiment): 55.7%
viability at 10 µM ([22]; TSGH-8301, repeated experiment, read-out: The results of antibiotic drug inhibiting cancer cell lines (cell viability analysis), TSGH-8301): 16.7%
viability at 10 µM ([22]; drug 10 μM, 72 hours, WST-1, OD450 nm, read-out: cell viability (survival rate), TSGH): 18.4%
viability at 10 µM [23, 25]: 50.9%
viability at 10 µM [23, 26]: 39.4%
viability at 10 µM ([24]; A549, repeated experiment, read-out: The results of antibiotic drug inhibiting cancer cell lines (cell viability analysis), A549): 15%
viability at 10 µM ([24]; drug 10 μM, 72 hours, WST-1, OD450 nm, read-out: cell viability (survival rate), A549): 36.6%

Clc1ccc(C(Cn2ccnc2)OCc2ccsc2Cl)c(Cl)c1 (centres unmarked) [Tioconazole]
viability at 10 µM ([1]; read-out: The results of antibiotic drug inhibiting cancer cell lines (cell viability analysis), HepG2, HepG2, repeated experiment): 109%
viability at 10 µM ([1]; read-out: cell viability (survival rate), HepG2, drug 10 μM, 72 hours, WST-1, OD450 nm): 100%
viability at 10 µM ([2]; read-out: The results of antibiotic drug inhibiting cancer cell lines (cell viability analysis), MKN-45, MKN-45, repeated experiment): 99.9%
viability at 10 µM ([2]; read-out: cell viability (survival rate), MKN-45, drug 10 μM, 72 hours, WST-1, OD450 nm): 61%
viability at 10 µM ([3]; read-out: The results of antibiotic drug inhibiting cancer cell lines (cell viability analysis), AGS, repeated experiment): 120%
viability at 10 µM ([3]; read-out: cell viability (survival rate), AGS, drug 10 μM, 72 hours, WST-1, OD450 nm): 82.7%
viability at 10 µM [4]: 87.8%
viability at 10 µM ([5]; read-out: The results of antibiotic drug inhibiting cancer cell lines (cell viability analysis), H1650, H1650, repeated experiment): 90.3%
viability at 10 µM ([5]; read-out: cell viability (survival rate), H1650, drug 10 μM, 72 hours, WST-1, OD450 nm): 72.9%
viability at 10 µM ([6]; C-33-A): 114%
viability at 10 µM [7]: 78.5%
viability at 10 µM ([8]; read-out: The results of antibiotic drug inhibiting cancer cell lines (cell viability analysis), PC-3, PC-3, repeated experiment): 104%
viability at 10 µM ([8]; read-out: cell viability (survival rate), PC3, drug 10 μM, 72 hours, WST-1, OD450 nm): 40.7%
viability at 10 µM [9]: 88.8%
viability at 10 µM ([10]; read-out: cell viability (survival rate), HL-60, drug 10 μM, 72 hours, WST-1, OD450 nm): 57.1%
viability [11]: 103%
viability at 10 µM [12]: 80.1%
viability at 10 µM [13]: 120%
viability at 10 µM ([14]; BXPC-3, 72 h): 69.2%
viability at 10 µM [15]: 92.4%
inhibition effect on different cancer cell lines [16]: significant inhibition effect
viability at 10 µM ([17]; read-out: The results of antibiotic drug inhibiting cancer cell lines (cell viability analysis), HeLa, repeated experiment): 96.9%
viability at 10 µM ([17]; read-out: cell viability (survival rate), HeLa, drug 10 μM, 72 hours, WST-1, OD450 nm): 58.5%
viability at 10 µM ([18]; read-out: The results of antibiotic drug inhibiting cancer cell lines (cell viability analysis), A375, A375, repeated experiment): 97.8%
viability at 10 µM ([18]; read-out: cell viability (survival rate), A375, drug 10 μM, 72 hours, WST-1, OD450 nm): 60.9%
viability at 10 µM [19]: 103%
viability at 10 µM [20]: 93.6%
viability at 10 µM ([21]; OVCAR-3, 72 h): 92.5%
viability at 10 µM ([22]; read-out: The results of antibiotic drug inhibiting cancer cell lines (cell viability analysis), TSGH-8301, TSGH-8301, repeated experiment): 105%
viability at 10 µM ([22]; read-out: cell viability (survival rate), TSGH, drug 10 μM, 72 hours, WST-1, OD450 nm): 68.1%
viability at 10 µM [23, 25]: 99.8%
viability at 10 µM [23, 26]: 83.2%
viability at 10 µM ([24]; read-out: The results of antibiotic drug inhibiting cancer cell lines (cell viability analysis), A549, A549, repeated experiment): 100%
viability at 10 µM ([24]; read-out: cell viability (survival rate), A549, drug 10 μM, 72 hours, WST-1, OD450 nm): 47.6%
